In ChEMBL document CHEMBL1201862, “PubChem BioAssay data set” (2004) one finds EC50, IC50 and CC50 data, which are given here for two compounds.

Calls of active or inactive are those of the source.

Holding throughout (format): functional
Experiment [1] is described as follows: Luminescence Cell-Based Dose Response to Identify Activators of Luciferase Translation or Activity in H4-C Neuroglioblastoma Cells. [Related pubchem assays: 1829 (Project Summary), 1814 (Primary HTS)].
The target of experiment [2] is T1, Orexin receptor type 2 (Homo sapiens, UniProt O43614). Nature of the experiment: Counterscreen assay for antagonists of the orexin 1 receptor (OX1R; HCRTR1): Homogeneous Time Resolved Fluorescence (HTRF)-based cell-based dose response assay for antagonists of the orexin 2 receptor (OX2R; HCRTR2), run by assay provider.
Experiment [3] concerns the target T2, Orexin/Hypocretin receptor type 1 (Homo sapiens, UniProt O43613).
T2 sequence (O43613 whole entry): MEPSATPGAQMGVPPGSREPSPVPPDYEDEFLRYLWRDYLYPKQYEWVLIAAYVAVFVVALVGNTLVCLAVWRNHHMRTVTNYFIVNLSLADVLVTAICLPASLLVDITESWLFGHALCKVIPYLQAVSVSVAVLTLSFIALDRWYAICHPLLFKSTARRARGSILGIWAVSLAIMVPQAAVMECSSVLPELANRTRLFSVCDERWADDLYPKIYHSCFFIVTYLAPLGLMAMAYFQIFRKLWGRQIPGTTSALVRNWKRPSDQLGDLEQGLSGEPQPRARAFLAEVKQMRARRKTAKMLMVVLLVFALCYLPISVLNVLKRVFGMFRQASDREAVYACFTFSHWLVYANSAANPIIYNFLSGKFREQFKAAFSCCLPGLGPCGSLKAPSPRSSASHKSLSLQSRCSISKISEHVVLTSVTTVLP
The experiment in a line: Homogeneous Time Resolved Fluorescence (HTRF)-based cell-based high throughput dose response assay for antagonists of the orexin 1 receptor (OX1R; HCRTR1). [Related pubchem assays (depositor defined):AID434989, AID435008, AID463079, AID485270, AID492963, AID492964, AID492965, AID493232, AID504717, AID504718]. Background: Time-resolved FRET reads energy transfer from a long-lived donor to a nearby acceptor.

A short description of experiment [4]: Counterscreen for antagonists of the orexin 1 receptor (OX1R; HCRTR1): Fluorescence-based cell-based high throughput dose response assay to identify antagonists of the parental CHO cell line. [Related pubchem assays (depositor defined):AID434989, AID435008, AID463079, AID485270, AID492963, AID492964, AID492965, AID493232, AID504699, AID504701]. On the technique in general: A counterscreen serves to expose hits that act by an unwanted route or on another target.

A further experiment has as its system H4. Nature of the experiment: Luminescence Cell-Based Dose Response HTS to Identify Activators of 5'UTR Stem-Loop Driven Prion Protein mRNA Translation in H4 Neuroglioblastoma Cells. [Related pubchem assays: 1829 (Project Summary), 1814 (Primary HTS)]. Particulars: Homo sapiens.
Experiment [5] can be described thus: Luminescence Cell-Based Dose Response to Identify Activators of 5'UTR Stem-Loop Driven Prion Protein mRNA Translation in H4-C Neuroglioblastoma Cells. [Related pubchem assays: 1829 (Project Summary), 1814 (Primary HTS)].
Experiment [6] has as its target T2, Orexin/Hypocretin receptor type 1. The experiment in a line: Fluorescence-based cell-based high throughput dose response assay for antagonists of the orexin 1 receptor (OX1R; HCRTR1). [Related pubchem assays (depositor defined):AID434989, AID435008, AID463079, AID485270, AID492963, AID492964, AID492965, AID493232, AID504717, AID504718].
Experiment [7] in a line: Luminescence Cell-Based Dose Confirmation to Identify Activators of 5'UTR Stem-Loop Driven Alpha-Synuclein mRNA Translation in H4 Neuroglioblastoma Cells. [Related pubchem assays: 1829 (Project Summary), 1814 (Primary HTS)].
A short description of experiment [8]: Luminescence Cell-Based Dose Response HTS to Identify Activators of Luciferase Translation or Activity in H4 […] Cells. [Related pubchem assays: 1829 (Project Summary), 1814 (Primary HTS)].
Experiment [9] addresses T1, Orexin receptor type 2. The experiment in a line: Counterscreen assay for antagonists of the orexin 1 receptor (OX1R; HCRTR1): Fluorescence-based cell-based dose response assay for antagonists of the orexin 2 receptor (OX2R; HCRTR2), run by assay provider.
In the next experiment the test system is CHO-K1. Nature of the experiment: Counterscreen for antagonists of the orexin 1 receptor (OX1R; HCRTR1): Homogeneous time resolved fluorescence (HTRF)-based cell-based dose response assay to identify antagonists of the parental CHO-K1 cell line. [Related pubchem assays (depositor defined):AID434989, AID435008, AID463079, AID485270, AID492963, AID492964, AID492965, AID493232, AID504699, AID504701]. The note with it: Cricetulus griseus.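 Note: potency for inhibition of ATP-stimulated IP1 production as antagonists.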

Experiment [10] in a line: THP-1 cell cytotoxicity, cytotoxicity control, set 6 (AID 602433). The note with it: Mycobacterium tuberculosis.

T1 sequence (O43614 whole entry): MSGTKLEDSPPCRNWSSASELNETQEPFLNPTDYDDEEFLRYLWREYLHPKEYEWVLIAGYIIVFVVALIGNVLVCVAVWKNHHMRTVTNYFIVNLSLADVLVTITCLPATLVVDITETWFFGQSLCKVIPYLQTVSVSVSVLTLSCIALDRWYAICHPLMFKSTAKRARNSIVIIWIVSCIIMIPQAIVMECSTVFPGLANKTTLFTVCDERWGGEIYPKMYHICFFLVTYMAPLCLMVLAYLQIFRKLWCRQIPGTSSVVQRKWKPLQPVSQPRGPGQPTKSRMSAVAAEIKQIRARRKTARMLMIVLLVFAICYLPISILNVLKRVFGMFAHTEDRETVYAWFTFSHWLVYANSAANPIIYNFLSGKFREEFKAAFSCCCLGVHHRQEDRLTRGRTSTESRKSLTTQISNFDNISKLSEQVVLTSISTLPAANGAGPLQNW

One may read the EC50 as the concentration that produces a half-maximal response. Usually IC50 stands for the point on the concentration scale where inhibition reaches its midpoint. As to `O=C(Nc1ccc2sc3ccccc3c(=O)c2c1)c1ccccc1Cl`, the EC50 was 454 nM (active) in experiment [1]; 199 nM (active) in the experiment with H4; 300 nM (active) in experiment [5]; 232 nM (active) in experiment [7]; 297 nM (active) in [8]. Further, the IC50 at Orexin receptor type 2 [2] is 1540 nM (active); in experiment [3] it was 3260 nM (active); in experiment [4], > 49800 nM (inactive); in [6], > 5530 nM (active); on Orexin receptor type 2 [9], > 88800 nM (inactive); in the experiment with CHO-K1 it was > 66200 nM (inactive).

A word on the CC50: it is the concentration that lowers cell viability or growth by half. Consider `O=C(c1ccc(CNc2c(N3CCOCC3)c(=O)c2=O)cc1)N1CCC(c2ccccc2)CC1`, for which, in experiment [10], the CC50 is > 100000 nM (active).
